Source: article PMC12521615, “Accurate affinity models for SH2 domains from peptide binding assays and free‐energy regression” (Protein Science : A Publication of the Protein Society, 2025)
Non-standard residues stand in square brackets, D forms with d. Residues, ends and D or L forms follow the SMILES beside them. pY = N[C@@H](Cc1ccc(OP(=O)(O)O)cc1)C(=O)O

Columns and labels:
Grb2 SH2 domain = Grb2 SH2 domain (Homo sapiens, UniProt P62993); assay: biochemical
Description: Measured binding constants (K D) from competition mode fluorescence polarization experiments were obtained using the purified SH2 domains used for the selection and chosen sets of peptides with a phosphorylated tyrosine exactly as described previously (Li et al., [2023]). […] (c‐Src SH2 consensus) was used as the probe, and for the Grb2 SH2 domain, the fluorescently labeled peptide FITC‐Ahx‐FDDPS(pY)VNVQN (Ahx = 6‐aminohexanoic acid) from the Y177 phospho‐tyrosine site of BCR. Before performing the competition mode fluorescence polarization measurement, the K D of the probes for the respective SH2 domains was first measured in a direct mode of fluorescence polarization. […] For the set of peptides where single point mutations were compared, phosphopeptides reported in the PhosphoSitePlus database (Hornbeck et al., [2015]) and previously shown to bind to the c‐Src SH2 domain (Li et al., [2023]) were chosen alongside their respective single point mutants. To choose phosphopeptides for validation of the Lyn SH2 domain, we started from all verified phosphopeptides found in PhosphoSitePlus, filtered based on their co‐expression with the Lyn kinase using the STRING database. Using the validation data for the Fyn SH2 domain, the range of predicted relative binding affinities that corresponds to the range between 1 nM and 100 μM, which is the dynamic range of reliable measurement of absolute binding affinities using our competitive fluorescence polarization setup, was defined and used to further filter the set of candidate phosphopeptides. A subset that evenly covers the chosen range of predicted relative affinities was finally picked for the validation measurements of the Lyn SH2 domain. For the c‐Src, Yes, and Blk SH2 domains, a combination of the previously chosen peptides was used, after verifying that their predicted relative affinities for the given SH2 domain fell within the same measurable range. All peptides containing phosphorylated tyrosine, both fluorescently labeled and non‐labeled, were produced by SynPeptide (China).

c-Src SH2 domain = target: T1, c-Src SH2 domain (Homo sapiens, UniProt P12931); assay: competitive fluorescence polarization, c-Src SH2 domain; assay type: binding; conditions: Table S3, unpaired validation; competition fluorescence polarization; probe FITC-Ahx-GDG-pY-EEISPLLL-NH2 30 nM; [SH2] 123-126 nM; mean
T1 construct: the SH2 domain from c‐Src kinase; His6-SUMO (N, cleaved yes); host or cells: Escherichia coli C43(DE3) with BirA helper plasmid
T1 sequence (P12931 151-248 limits assumed): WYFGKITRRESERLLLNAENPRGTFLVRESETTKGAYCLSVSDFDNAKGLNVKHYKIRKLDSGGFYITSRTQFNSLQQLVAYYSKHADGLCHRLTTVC
Description: Measured binding constants (K D) from competition mode fluorescence polarization experiments were obtained using the purified SH2 domains used for the selection and chosen sets of peptides with a phosphorylated tyrosine exactly as described previously (Li et al., [2023]). […] Before performing the competition mode fluorescence polarization measurement, the K D of the probes for the respective SH2 domains was first measured in a direct mode of fluorescence polarization. […] Using the validation data for the Fyn SH2 domain, the range of predicted relative binding affinities that corresponds to the range between 1 nM and 100 μM, which is the dynamic range of reliable measurement of absolute binding affinities using our competitive fluorescence polarization setup, was defined and used to further filter the set of candidate phosphopeptides. A subset that evenly covers the chosen range of predicted relative affinities was finally picked for the validation measurements of the Lyn SH2 domain.

Grb2 SH2 domain, sequence (P62993 60-152 limits assumed): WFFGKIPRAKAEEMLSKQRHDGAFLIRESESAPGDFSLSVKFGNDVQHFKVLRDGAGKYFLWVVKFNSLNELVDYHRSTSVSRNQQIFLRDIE

Row | Structure (SMILES) | Kd (Grb2 SH2 domain) [nM] | Kd (c-Src SH2 domain) [nM]
1 | CC(=O)N[C@@H](CCC(N)=O)C(=O)N[C@@H](CCCCN)C(=O)N[C@@H](CCC(=O)O)C(=O)N[C@@H](C)C(=O)N[C@@H](Cc1c[nH]cn1)C(=O)N[C@@H](Cc1c[nH]cn1)C(=O)N[C@@H](Cc1ccc(OP(=O)(O)O)cc1)C(=O)N[C@H](C(=O)N[C@@H](CC(N)=O)C(=O)N[C@@H](Cc1c[nH]c2ccccc12)C(=O)N[C@@H](CCCNC(=N)N)C(=O)N[C@H](C(=O)NCC(N)=O)[C@@H](C)O)C(C)C [Syn-G2-1] (Ac-QKEAHH[pY]VNWRTG-NH2) | 31.8 | 9660
2 | CC(=O)N[C@@H](CCC(N)=O)C(=O)N[C@@H](Cc1c[nH]cn1)C(=O)N[C@@H](CCCNC(=N)N)C(=O)N[C@@H](CC(C)C)C(=O)N[C@@H](CC(N)=O)C(=O)N[C@@H](CC(N)=O)C(=O)N[C@@H](Cc1ccc(OP(=O)(O)O)cc1)C(=O)N[C@@H](CCC(=O)O)C(=O)N[C@@H](CC(N)=O)C(=O)N[C@@H](CC(N)=O)C(=O)N[C@@H](CCCNC(=N)N)C(=O)N[C@@H](CC(C)C)C(=O)NCC(N)=O [Syn-G2-6] (Ac-QHRLNN[pY]ENNRLG-NH2) | 2250 | 
3 | CC[C@H](C)[C@H](NC(=O)[C@H](CCC(N)=O)NC(C)=O)C(=O)N[C@@H](CCC(=O)O)C(=O)N[C@H](C(=O)NCC(=O)N[C@H](C(=O)N[C@@H](Cc1ccc(OP(=O)(O)O)cc1)C(=O)N[C@@H](CCC(N)=O)C(=O)N[C@@H](CC(N)=O)C(=O)N1CCC[C@H]1C(=O)N[C@@H](Cc1c[nH]cn1)C(=O)N[C@@H](CC(N)=O)C(=O)NCC(N)=O)[C@@H](C)O)C(C)C [Syn-G2-7] (Ac-QIEVGT[pY]QNPHNG-NH2) | 3240 | 
